Test results taken from PubChem BioAssay AID1919009 (Molecular Pharmacology Branch, DTP, NCI, 2023).
pIC50: −log10 of the molar value.

Test system: K24384-001-R-PDC complex spheroid growth
Assay: Anticancer human tumor K24384-001-R-PDC patient-derived pancreatic adenocarcinoma cell line growth inhibition [AhR]
Conditions: for pIC50: curve of first compound; for viability, T/C: stronger effect = lower value; active = viability on the fitted dose curve at most 10% of control; inactive = the rest
Procedure, shortened: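 Spheroids combined tumor cells with HUVEC endothelial cells and human MSCs as stroma. AhR antagonists were paired with standard or investigational drugs, each dosed in half-log steps down from near clinical Cmax, or from 10 microM where Cmax was unknown.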
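Throughout, for viability, T/C: percent of DMSO vehicle-treated spheroid viability set as 100%.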

CC(C)CC(NC(=O)C(Cc1ccccc1)NC(=O)c1cnccn1)B(O)O (stereo not given) + Cc1ccccc1N=Nc1ccc(NC(=O)c2ccnn2C)c(C)c1
7.98: pIC50 (second compound 10 µM)
8.00: pIC50 (second compound 0.316 µM)
7.95: pIC50 (second compound 1 µM)
active: viability, T/C (second compound 0.1 µM, first compound 0.03 µM) 1.13% | viability, T/C (second compound 0.1 µM, first compound 0.0949 µM) 0.15% | viability, T/C (second compound 0.1 µM, first compound 0.3 µM) 0.42% | viability, T/C (second compound 0.316 µM, first compound 0.03 µM) 1.07% | viability, T/C (second compound 0.316 µM, first compound 0.0949 µM) 0.38% | viability, T/C (second compound 0.316 µM, first compound 0.3 µM) 0.33% | viability, T/C (second compound 1 µM, first compound 0.03 µM) 1.14% | viability, T/C (second compound 1 µM, first compound 0.0949 µM) 0.44% | viability, T/C (second compound 1 µM, first compound 0.3 µM) 0.38% | viability, T/C (second compound 3.16 µM, first compound 0.03 µM) 1.31% | viability, T/C (second compound 3.16 µM, first compound 0.0949 µM) 0.31% | viability, T/C (second compound 3.16 µM, first compound 0.3 µM) 0.48% | viability, T/C (second compound 10 µM, first compound 0.03 µM) 2.19% | viability, T/C (second compound 10 µM, first compound 0.0949 µM) 1.72% | viability, T/C (second compound 10 µM, first compound 0.3 µM) 0.66%
inactive: viability, T/C (second compound 0.1 µM, first compound 0.000949 µM) 106% | viability, T/C (second compound 0.1 µM, first compound 0.003 µM) 90% | viability, T/C (second compound 0.1 µM, first compound 0.00949 µM) 57.3% | viability, T/C (second compound 0.316 µM, first compound 0.000949 µM) 95.3% | viability, T/C (second compound 0.316 µM, first compound 0.003 µM) 76.8% | viability, T/C (second compound 0.316 µM, first compound 0.00949 µM) 54% | viability, T/C (second compound 1 µM, first compound 0.000949 µM) 104% | viability, T/C (second compound 1 µM, first compound 0.003 µM) 79.5% | viability, T/C (second compound 1 µM, first compound 0.00949 µM) 60.4% | viability, T/C (second compound 3.16 µM, first compound 0.000949 µM) 83.9% | viability, T/C (second compound 3.16 µM, first compound 0.003 µM) 102% | viability, T/C (second compound 3.16 µM, first compound 0.00949 µM) 51.3% | viability, T/C (second compound 10 µM, first compound 0.000949 µM) 97.4% | viability, T/C (second compound 10 µM, first compound 0.003 µM) 115% | viability, T/C (second compound 10 µM, first compound 0.00949 µM) 54.7%
7.97: pIC50 (second compound 0.1 µM)
8.01: pIC50 (second compound 3.16 µM)
